Results published in US20140113912A1, “TREATMENT AND MANAGEMENT OF CNS DISORDERS” (priority 2011, published 2014).
Entries after “also recorded” stand apart in the source; their conditions may differ.

Experiments:
dopamine D2 = dopamine D2 (Homo sapiens, UniProt P14416); conditions: reported; cited from earlier work
[1] = test system: positive and negative symptoms of schizophrenia; conditions: several placebo-controlled trials; cited from earlier work
aspartate = test: Metabolomic analysis: aspartate level; set-up: species or system human; conditions: in vivo
Source text: (§1) Blood samples were taken at 4 days and 6 weeks following treatment. Plasma samples were isolated from whole blood and used for global metabolomic profiling.
(§2) At the time of analysis, samples were thawed and extracts prepared according to a standard protocol, which is designed to remove protein, dislodge small molecules bound to protein or physically trapped in the precipitated protein matrix, and recover a wide range of chemically diverse metabolites. A separate aliquot of each experimental plasma sample was taken then pooled for the creation of “Client Matrix” (CMTRX) samples. These CMTRX samples were injected throughout the platform run and served as technical replicates, allowing variability in the quantitation of all consistently detected biochemicals to be determined and overall process variability and platform performance to be monitored. Extracts of all experimental and CMTRX samples were split for analysis on the GC/MS and LC/MS/MS platforms.
(§3) The CMTRX technical replicate samples were treated independently throughout the process as if they were study samples. All process samples (CMTRX, GROBs—a mixture of organic components used to assess GC column performance, process blanks, etc.) were spaced evenly among the injections for each day and all client samples were randomly distributed throughout each day's run. […]

glutamate = test: Metabolomic analysis of plasma samples: glutamate level; format: in vivo, human
Source text: as §1, §2
(§4) The CMTRX technical replicate samples were treated independently throughout the process as if they were study samples. All process samples (CMTRX, GROBs—a mixture of organic components used to assess GC column performance, process blanks, etc.) were spaced evenly among the injections for each day and all client samples were randomly distributed throughout each day's run. Data were collected over eight platform run days and thus, ‘block normalized’ by calculating the median values for each run-day block for each individual compound. […] Missing values (if any) were assumed to be below the level of detection for that biochemical with the instrumentation used and were imputed with the observed minimum for that particular biochemical.
A number of internal standards were added to each experimental and process standard sample just prior to injection into the mass spectrometers. A measure of the platform variability was determined by calculating the median relative standard deviation (RSD) for these internal standards. […] Because these standards were added to the samples immediately prior to injection into the instrument, this value reflects instrument variation. In addition, the median relative standard deviation (RSD) for the biochemicals that were consistently measured in the CMTRX represents the total variability within the process for the actual experimental samples and the variability in quantitation of the endogenous metabolites within these samples (Table 2).
Biochemical data were analyzed by ANOVA contrasts and a Two-way ANOVA.
(§5) Statistical analyses of the data were performed on natural log-transformed data to reduce the effect of any potential outliers in the data. T-test comparisons were calculated using the one or both of the statistical software analysis programs: Array Studio (Omicsoft, Inc) or ‘R’ from the Free Software Foundation, Inc.
(§6) For t-test comparisons, within each group: placebo, lurasidone and olanzapine, the early versus the late time point was compared (i.e., 4 days versus 6 weeks). In addition, both lurasidone and olanzapine were compared with placebo at the appropriate time point and then lurasidone was compared with olanzapine at both 4 days and 6 weeks.

5-HT7 = 5-HT7 (Homo sapiens, UniProt P34969); conditions: reported; cited from earlier work
5-HT7, sequence (P34969 whole entry, species assumed): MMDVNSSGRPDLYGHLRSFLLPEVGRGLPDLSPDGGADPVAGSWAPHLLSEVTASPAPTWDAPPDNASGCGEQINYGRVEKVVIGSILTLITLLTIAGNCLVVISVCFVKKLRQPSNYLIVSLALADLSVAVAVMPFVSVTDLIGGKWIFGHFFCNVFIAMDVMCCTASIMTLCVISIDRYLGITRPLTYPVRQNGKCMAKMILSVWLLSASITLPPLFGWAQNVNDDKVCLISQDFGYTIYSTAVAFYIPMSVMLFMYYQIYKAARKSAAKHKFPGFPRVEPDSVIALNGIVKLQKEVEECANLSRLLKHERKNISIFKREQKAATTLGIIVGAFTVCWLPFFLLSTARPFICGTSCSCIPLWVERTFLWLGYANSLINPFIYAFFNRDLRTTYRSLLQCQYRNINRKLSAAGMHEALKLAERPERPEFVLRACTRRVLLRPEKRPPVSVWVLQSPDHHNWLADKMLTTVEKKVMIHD

muscarinic M1 receptors = biological target: T1, muscarinic M1 receptors (Homo sapiens, UniProt P11229); conditions: reported; cited from earlier work
T1 sequence (P11229 1-460): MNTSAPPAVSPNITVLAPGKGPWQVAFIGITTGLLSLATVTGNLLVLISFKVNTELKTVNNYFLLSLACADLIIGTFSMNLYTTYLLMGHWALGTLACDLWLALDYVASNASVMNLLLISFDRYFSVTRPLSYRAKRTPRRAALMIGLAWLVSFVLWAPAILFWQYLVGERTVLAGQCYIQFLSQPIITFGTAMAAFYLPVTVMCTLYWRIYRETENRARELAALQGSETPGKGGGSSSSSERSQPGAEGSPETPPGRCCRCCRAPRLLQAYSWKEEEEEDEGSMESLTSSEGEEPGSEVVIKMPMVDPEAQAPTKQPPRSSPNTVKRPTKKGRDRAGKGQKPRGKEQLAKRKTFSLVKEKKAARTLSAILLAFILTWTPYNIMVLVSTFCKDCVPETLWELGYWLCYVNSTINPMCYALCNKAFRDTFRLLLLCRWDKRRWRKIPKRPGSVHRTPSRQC

5-HT2A = 5-HT2A (Homo sapiens, UniProt P28223); conditions: reported; cited from earlier work
5-HT2A, sequence (P28223 whole entry, species assumed): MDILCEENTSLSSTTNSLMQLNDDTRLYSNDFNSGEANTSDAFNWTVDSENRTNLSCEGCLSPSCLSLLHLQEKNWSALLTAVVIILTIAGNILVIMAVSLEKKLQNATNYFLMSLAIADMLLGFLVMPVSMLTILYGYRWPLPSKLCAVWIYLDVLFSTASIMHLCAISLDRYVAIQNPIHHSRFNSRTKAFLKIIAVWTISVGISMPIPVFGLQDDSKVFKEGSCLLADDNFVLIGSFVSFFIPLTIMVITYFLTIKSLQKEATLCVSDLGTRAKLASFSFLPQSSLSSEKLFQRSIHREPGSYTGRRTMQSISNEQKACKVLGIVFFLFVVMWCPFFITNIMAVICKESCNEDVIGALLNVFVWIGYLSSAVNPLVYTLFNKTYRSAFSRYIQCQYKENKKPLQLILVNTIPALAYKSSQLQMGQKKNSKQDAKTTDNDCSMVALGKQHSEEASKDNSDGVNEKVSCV

732 biochemicals = test: Global metabolomic profiling: number of biochemicals significantly changed; format: in vivo, human; conditions: Day 42; for number of biochemicals significantly decreased / number of biochemicals significantly increased: of 732 biochemicals; for share of biochemicals significantly changed / number of biochemicals whose serum levels were significantly changed: of a total of 732 biochemicals; for number of biochemicals whose serum levels were significantly changed: p≦0.05
Source text: as §1, §2, §4
Two parameters are typically evaluated when considering statistical significance, namely the p-value and the q-value. […] The q-value describes the false discovery rate; a low q-value (q≦0.10) is an indication of high confidence in a result. Because of the multiple testing occurring in the data sets produced by metabolomic studies, data is often evaluated for false positives.
as §5, §6

serotonin 5-HT1A = biological target: T2, serotonin 5-HT1A (Homo sapiens, UniProt P08908); conditions: reported; cited from earlier work
T2 sequence (P08908 1-422): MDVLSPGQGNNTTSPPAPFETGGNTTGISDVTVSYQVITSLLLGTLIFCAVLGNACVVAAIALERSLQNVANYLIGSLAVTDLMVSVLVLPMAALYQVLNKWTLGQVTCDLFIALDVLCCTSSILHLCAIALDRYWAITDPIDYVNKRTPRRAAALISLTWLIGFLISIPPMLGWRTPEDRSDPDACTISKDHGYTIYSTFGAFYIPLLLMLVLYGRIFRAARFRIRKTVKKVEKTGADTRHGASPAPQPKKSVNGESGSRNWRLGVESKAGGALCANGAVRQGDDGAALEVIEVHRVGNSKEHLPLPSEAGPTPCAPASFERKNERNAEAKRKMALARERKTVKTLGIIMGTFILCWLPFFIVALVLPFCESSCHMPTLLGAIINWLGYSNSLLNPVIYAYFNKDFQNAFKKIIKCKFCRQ

glycine = test: Metabolomic analysis: glycine level; set-up: species or system human; conditions: in vivo
Source text: as §1, §2, §3

histamine H1 = histamine H1 (Homo sapiens, UniProt P35367); conditions: reported; cited from earlier work
histamine H1, sequence (P35367 whole entry): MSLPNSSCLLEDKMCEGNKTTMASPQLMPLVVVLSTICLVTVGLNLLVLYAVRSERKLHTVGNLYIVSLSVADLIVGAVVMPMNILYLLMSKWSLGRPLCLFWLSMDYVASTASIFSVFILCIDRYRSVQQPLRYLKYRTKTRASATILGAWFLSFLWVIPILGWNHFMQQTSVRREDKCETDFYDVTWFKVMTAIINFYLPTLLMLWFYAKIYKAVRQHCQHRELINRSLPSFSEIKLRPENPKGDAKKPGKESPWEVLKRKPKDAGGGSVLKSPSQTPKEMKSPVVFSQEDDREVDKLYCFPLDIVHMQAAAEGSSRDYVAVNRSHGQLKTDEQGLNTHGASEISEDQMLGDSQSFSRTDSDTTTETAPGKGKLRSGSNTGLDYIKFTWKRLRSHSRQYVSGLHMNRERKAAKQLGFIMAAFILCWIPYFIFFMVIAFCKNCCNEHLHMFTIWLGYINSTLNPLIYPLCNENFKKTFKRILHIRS

[2] = test system: patient diagnosed schizophrenia; test: PANSS scoring, 6-week double-blind treatment; format: in vivo, human; conditions: 6 weeks; treatment responders only; lurasidone 40 mg/d, olanzapine 15 mg/d, placebo; FIG. 1
Procedure: Positive and Negative Syndrome Scale (PANSS) was measured according to the procedures well-established in the art. Clinical interviews were conducted by qualified trained professionals. A patient diagnosed schizophrenia was rated from 1 to 7 on 30 different symptoms based in the interview. The 30 symptoms assessed were: (1) positive symptoms, i.e., delusions, conceptual disorganization, hallucinations, hyperactivity, grandiosity, suspiciousness/persecution and hostility; (2) negative symptoms, i.e., blunted affect, emotional withdrawal, poor rapport, passive/apathetic social withdrawal, difficulty in abstract thinking, lack of spontaneity and flow of conversation and stereotyped thinking; and (3) general psychopathology symptoms, i.e., somatic concern, anxiety, guilt feelings, tension, mannerism and posturing, depression, motor retardation, uncooperativeness, unusual thought content, disorientation, poor attention, lack of judgment and insight, disturbance of volition, poor impulse control, preoccupation and active social avoidance. […]
Prior to the baseline visit, subjects underwent a 3-7 day washout of their current antipsychotic medication and randomized to receive either lurasidone (40 mg per day), olanzapine (15 mg per day) or placebo for 6 weeks. Symptom improvement was assessed by the change in PANSS score (total and subscale scores) from baseline to study endpoint. […]

serine = test: Metabolomic analysis: serine level; set-up: species or system human; conditions: in vivo
Source text: as §1, §2, §3

[3] = biological target: T3, noradrenaline α2C receptors (Homo sapiens, UniProt P18825); conditions: reported; cited from earlier work
T3 sequence (P18825 1-462): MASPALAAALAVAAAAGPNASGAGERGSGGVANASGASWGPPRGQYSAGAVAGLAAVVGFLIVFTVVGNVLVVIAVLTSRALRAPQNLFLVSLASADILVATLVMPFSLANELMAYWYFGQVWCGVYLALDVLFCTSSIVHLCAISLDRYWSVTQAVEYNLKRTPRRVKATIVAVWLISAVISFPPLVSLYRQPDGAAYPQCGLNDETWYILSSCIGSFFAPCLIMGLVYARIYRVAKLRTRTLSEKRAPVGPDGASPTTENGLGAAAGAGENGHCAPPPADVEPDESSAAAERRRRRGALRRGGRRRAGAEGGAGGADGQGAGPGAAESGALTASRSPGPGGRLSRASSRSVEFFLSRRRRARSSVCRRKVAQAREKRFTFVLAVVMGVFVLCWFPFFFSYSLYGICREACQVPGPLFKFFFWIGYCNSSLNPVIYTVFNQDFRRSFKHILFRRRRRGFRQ

[4] = Total Sample of treatment responders, lurasidone 40 mg/d, olanzapine 15 mg/d, plasma
[5] = subgroup PANSS Negative Change at Week 6 ≦median change score
[6] = subgroup PANSS Positive Change at Week 6 >median change score
[7] = subgroup PANSS Positive Change at Week 6 ≦median change score
[8] = subgroup PANSS Total Change at Week 6 >median change score
[9] = subgroup PANSS Total Change at Week 6 ≦median change score

dopamine D2, sequence (P14416 whole entry): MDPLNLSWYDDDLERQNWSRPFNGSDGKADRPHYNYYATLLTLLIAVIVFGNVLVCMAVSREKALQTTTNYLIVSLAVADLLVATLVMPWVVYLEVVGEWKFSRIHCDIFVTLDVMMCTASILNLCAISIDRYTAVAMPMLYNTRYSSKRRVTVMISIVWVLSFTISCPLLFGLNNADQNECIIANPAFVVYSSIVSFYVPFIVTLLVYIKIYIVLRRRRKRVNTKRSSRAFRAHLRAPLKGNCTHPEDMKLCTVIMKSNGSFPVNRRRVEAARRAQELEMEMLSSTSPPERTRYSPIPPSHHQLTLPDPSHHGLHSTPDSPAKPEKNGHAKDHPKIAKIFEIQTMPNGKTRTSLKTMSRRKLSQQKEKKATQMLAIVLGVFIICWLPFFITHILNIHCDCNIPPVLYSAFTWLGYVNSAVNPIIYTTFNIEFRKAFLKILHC

SMILES	Glutamate Levels at Week 6, mean (SD) (glutamate; [4])	Glutamate Levels at Week 6, mean (SD) (glutamate; [5])	Glutamate Levels at Week 6, mean (SD) (glutamate; [6])	Glutamate Levels at Week 6, mean (SD) (glutamate; [7])	Glutamate Levels at Week 6, mean (SD) (glutamate; [8])	Glutamate Levels at Week 6, mean (SD) (glutamate; [9])	number of biochemicals significantly decreased (732 biochemicals)	number of biochemicals significantly increased (732 biochemicals)	share of biochemicals significantly changed (732 biochemicals) [%]	number of biochemicals whose serum levels were significantly changed (732 biochemicals)	other results
O=C1[C@@H]2[C@H]3CC[C@H](C3)[C@@H]2C(=O)N1C[C@@H]1CCCC[C@H]1CN1CCN(c2nsc3ccccc23)CC1 [Lurasidone]	1.12 (0.34)	1.00 (0.28)	1.14 (0.41)	1.09 (0.23)	1.13 (0.38)	1.09 (0.27)	14	11	3	25	affinity for dopamine D2 (dopamine D2): high affinity; ameliorating the positive and negative symptoms of schizophrenia [1]: effective; level of aspartate upon treatment (aspartate): increased; overall glutamate level compared with the placebo group (glutamate; days 4 and weeks 6, treatment responders, FIG. 2): significantly greater; glutamate level in responders with high improvement in negative symptoms compared with other responder groups (glutamate; week 6, PANSS negative change above median, FIG. 3): significantly higher increase; also recorded: significantly higher than all other responder groups; relation between levels of glutamate and change in PANSS negative subscore (glutamate; week 6, scatterplot FIG. 4): proportional; affinity for 5-HT7 (5-HT7): high affinity; affinity for muscarinic M1 receptors (muscarinic M1 receptors): minimal to no affinity; affinity for 5-HT2A (5-HT2A): high affinity; affinity for serotonin 5-HT1A (serotonin 5-HT1A): high affinity; also recorded: moderate affinity; level of glycine upon treatment (glycine): increased; affinity for histamine H1 (histamine H1): minimal to no affinity; improvement in PANSS total, positive and negative subscores across treatment groups [2]: comparable; level of serine upon treatment (serine): increased; affinity for noradrenaline α2C receptors [3]: high affinity
Cc1cc2c(s1)Nc1ccccc1N=C2N1CCN(C)CC1 [Olanzapine, olanzapine]	1.00 (0.24)	1.03 (0.23)	1.02 (0.27)	0.98 (0.22)	1.01 (0.27)	0.99 (0.26)	46	54	14	100	Glutamate Levels at Week 6, mean (SD) (glutamate; subgroup PANSS Negative Change at Week 6 >median change score, *lurasidone vs. olanzapine P = 0.014, vs placebo P = 0.025): 0.97 (0.26)
